In patent US20090137572A1, “2-substituted-4-heteroaryl-pyrimidines useful for the treatment of proliferative disorders” (priority 2004, published 2009):

How the values were obtained:
CDK2-cycline E = CDK2-cycline E (Homo sapiens, UniProt P24941); assay: Kinase assay (radioactive phosphate incorporation), CDK2-cyclin E; format: biochemical; details: read-out: Kinase Inhibition pIC50 CDK2-cycline E (converted)
Method in brief: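 Inhibition measured as 32P transfer from ATP (100 μM, 15 mM MgCl2) onto peptide substrates at 30° C. Each assay used 2-4 μg active recombinant enzyme in pH 7.4 buffer. Reactions stopped on ice, filtered, acid-washed and counted; compounds diluted into 10% DMSO in assay buffer.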

Aurora A kinase = biological target: T1, Aurora A kinase (Homo sapiens, UniProt O14965); assay: Aurora-A (human) kinase assay (Kemptide substrate); format: biochemical; details: pIC50 is -log(IC50, M); 15 μM ATP; read-out: Kinase Inhibition pIC50 Aurora A kinase (converted)
T1 construct: purchased
T1 sequence (O14965 1-403): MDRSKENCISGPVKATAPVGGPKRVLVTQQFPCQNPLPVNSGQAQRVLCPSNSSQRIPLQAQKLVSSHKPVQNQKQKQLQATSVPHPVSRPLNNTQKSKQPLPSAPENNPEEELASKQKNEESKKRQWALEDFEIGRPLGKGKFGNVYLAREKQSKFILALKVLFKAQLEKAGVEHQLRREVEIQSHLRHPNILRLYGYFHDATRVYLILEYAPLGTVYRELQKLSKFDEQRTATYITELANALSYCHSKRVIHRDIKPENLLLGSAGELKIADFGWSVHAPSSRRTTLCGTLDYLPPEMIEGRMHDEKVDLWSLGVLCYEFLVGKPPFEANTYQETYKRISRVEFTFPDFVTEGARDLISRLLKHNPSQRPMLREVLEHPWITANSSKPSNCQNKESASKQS
Method in brief: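 Kemptide (LRRASLG, 200 μM) phosphorylation by 5-10 ng commercial aurora-A measured as [γ-33P] incorporation at 15 μM ATP with 10 mM Mg acetate, pH 7.0 MOPS buffer. Reaction ran 40 min at room temperature; acid-stopped, captured on P81 filters, scintillation read.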

CDK9/cyclin T1 = CDK9/cyclin T1 (Homo sapiens, UniProt P50750); assay: CDK 9 assay (CTD peptide substrate); format: biochemical; details: read-out: Kinase Inhibition pIC50 CDK9-cyclin T1 (converted)
Method in brief: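 32P transfer from 100 μM ATP (trace [γ-32P]ATP) to a biotinyl CTD (YSPTSPS)4 peptide was measured after 45 min at 30 °C in pH 7.2 MOPS buffer, 15 mM MgCl2, using recombinant human CDK7/cyclin H or CDK9/cyclin T1. Signal read by filter binding and scintillation counting.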

CDK9/cyclin T1, sequence (P50750 whole entry): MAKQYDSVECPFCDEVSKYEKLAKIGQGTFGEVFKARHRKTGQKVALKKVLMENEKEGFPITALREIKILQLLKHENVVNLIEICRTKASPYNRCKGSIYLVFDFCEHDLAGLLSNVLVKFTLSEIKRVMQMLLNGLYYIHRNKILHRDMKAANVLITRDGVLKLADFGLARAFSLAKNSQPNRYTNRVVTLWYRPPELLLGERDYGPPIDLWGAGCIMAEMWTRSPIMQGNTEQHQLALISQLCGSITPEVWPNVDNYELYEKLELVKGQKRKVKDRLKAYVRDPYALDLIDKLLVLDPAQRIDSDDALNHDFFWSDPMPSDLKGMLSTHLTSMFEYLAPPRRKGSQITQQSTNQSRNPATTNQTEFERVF
CDK9/cyclin T1, sequence (O60563 whole entry partner): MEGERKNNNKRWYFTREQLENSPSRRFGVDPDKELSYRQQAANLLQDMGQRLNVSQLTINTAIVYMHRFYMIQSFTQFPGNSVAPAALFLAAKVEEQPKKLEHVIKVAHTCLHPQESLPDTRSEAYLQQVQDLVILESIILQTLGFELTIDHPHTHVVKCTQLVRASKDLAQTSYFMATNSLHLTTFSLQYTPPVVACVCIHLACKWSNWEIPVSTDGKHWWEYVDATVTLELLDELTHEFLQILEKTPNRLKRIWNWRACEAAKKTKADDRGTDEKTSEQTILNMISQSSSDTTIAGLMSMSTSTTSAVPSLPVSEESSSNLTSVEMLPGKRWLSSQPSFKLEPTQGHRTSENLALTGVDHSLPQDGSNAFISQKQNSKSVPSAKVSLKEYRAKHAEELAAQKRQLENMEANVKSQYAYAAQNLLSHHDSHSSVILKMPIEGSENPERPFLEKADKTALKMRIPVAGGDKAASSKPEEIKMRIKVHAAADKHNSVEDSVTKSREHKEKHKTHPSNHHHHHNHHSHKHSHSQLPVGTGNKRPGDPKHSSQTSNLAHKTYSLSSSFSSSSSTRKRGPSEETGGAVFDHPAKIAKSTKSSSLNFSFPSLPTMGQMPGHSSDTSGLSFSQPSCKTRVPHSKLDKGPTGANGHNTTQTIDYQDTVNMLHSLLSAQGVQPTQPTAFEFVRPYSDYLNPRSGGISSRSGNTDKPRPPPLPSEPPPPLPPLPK

| Compound | IC50 (CDK2-cycline E) | melting point | IC50 (Aurora A kinase) | IC50 (CDK9/cyclin T1) |
| --- | --- | --- | --- | --- |
| Cc1nc(C)c(-c2ccnc(Nc3cccc(CN)c3)n2)s1 [Compound 90, (3-Aminomethyl-phenyl)-[4-(2,4-dimethyl-thiazol-5-yl)-pyrimidin-2-yl]-amine] | 0.398 µM | 183 to 184 °C |  |  |
| CC(=O)NCc1cccc(Nc2nccc(-c3sc(N(C)c4cc(Cl)cc(Cl)c4)nc3C)n2)c1 [Compound 125, N-[3-(4-{2-[(3,5-Dichloro-phenyl)-methyl-amino]-4-methyl-thiazol-5-yl}-pyrimidin-2-ylamino)-benzyl]-acetamide] |  | 213 to 214 °C | 2.51 µM |  |
| Cc1nc(-c2cccnc2)sc1-c1ccnc(Nc2cc(Cl)c(N3CCOCC3)c(Cl)c2)n1 [Compound 126, (3,5-Dichloro-4-morpholin-4-yl-phenyl)-[4-(4-methyl-2-pyridin-3-yl-thiazol-5-yl)-pyrimidin-2-yl]-amine] |  | 276 to 278 °C | 0.251 µM |  |
| Cc1nc(N(C)c2cc(Cl)cc(Cl)c2)sc1-c1ccnc(Nc2ccc(N3CCOCC3)c(Cl)c2)n1 [Compound 128, (3-Chloro-4-morpholin-4-yl-phenyl)-(4-{2-[(3,5-dichloro-phenyl)-methyl-amino]-4-methyl-thiazol-5-yl}-pyrimidin-2-yl)-amine] |  | 224 to 225 °C | 0.1 µM |  |
| CC(=O)NCc1cccc(Nc2nccc(-c3sc(-c4cccs4)nc3C)n2)c1 [Compound 130, N-{3-[4-(4-Methyl-2-thiophen-2-yl-thiazol-5-yl)-pyrimidin-2-ylamino]-benzyl}-acetamide] | 0.794 µM | 223 to 225 °C | 0.158 µM |  |
| Cc1nc(-c2nc(C)c(-c3ccnc(Nc4ccc(N5CCOCC5)cc4)n3)s2)cs1 [Compound 135, [4-(4,2′-Dimethyl-[2,4′]bithiazolyl-5-yl)-pyrimidin-2-yl]-(4-morpholin-4-yl-phenyl)-amine] |  | 262 to 263 °C | 1.26 µM |  |
| CC(=O)N1CCN(c2ccc(Nc3nccc(-c4sc(-c5ccc(N6CCOCC6)cc5)nc4C)n3)cc2)CC1 [Compound 148, 1-[4-(4-{4-[4-Methyl-2-(4-morpholin-4-yl-phenyl)-thiazol-5-yl]-pyrimidin-2-ylamino}-phenyl)-piperazin-1-yl]-ethanone] |  | 250 to 252 °C | 0.316 µM |  |
| CCNc1nc(C)c(-c2ccnc(Nc3ccc(N4CCOCC4)c(OC)c3)n2)s1 [Compound 157, [4-(2-Ethylamino-4-methyl-thiazol-5-yl)-pyrimidin-2-yl]-(3-methoxy-4-morpholin-4-yl-phenyl)-amine] | 0.251 µM | 224 to 226 °C | 0.0251 µM |  |
| Cc1nc(NCCc2ccccc2)sc1-c1ccnc(Nc2ccc(N3CCOCC3)cc2)n1 [Compound 158, [4-(4-Methyl-2-phenethylamino-thiazol-5-yl)-pyrimidin-2-yl]-(4-morpholin-4-yl-phenyl)-amine] | 1 µM | 226 to 228 °C | 0.2 µM |  |
| COc1cc(Nc2nccc(-c3sc(NCCc4ccccc4)nc3C)n2)cc(OC)c1 [Compound 159, (3,5-Dimethoxy-phenyl)-[4-(4-methyl-2-phenethylamino-thiazol-5-yl)-pyrimidin-2-yl]-amine] |  | 201 to 202 °C | 0.794 µM |  |
| CCNc1nc(C)c(-c2ccnc(Nc3cc(OC)cc(OC)c3)n2)s1 [Compound 160, (3,5-Dimethoxy-phenyl)-[4-(2-ethylamino-4-methyl-thiazol-5-yl)-pyrimidin-2-yl]-amine] |  | 235 to 237 °C | 0.794 µM |  |
| CC(=O)N1CCN(c2ccc(Nc3nccc(-c4sc(Nc5ccccc5)nc4C)n3)cc2)CC1 [Compound 172, 1-(4-{4-[4-(4-Methyl-2-phenylamino-thiazol-5-yl)-pyrimidin-2-ylamino]-phenyl}-piperazin-1-yl)-ethanone] |  | 245 to 246 °C | 0.251 µM |  |
| Cc1nc(Nc2ccccc2)sc1-c1ccnc(Nc2ccc(N3CCN(Cc4ccccc4)CC3)cc2)n1 [Compound 176, [4-(4-Benzyl-piperazin-1-yl)-phenyl]-[4-(4-methyl-2-phenylamino-thiazol-5-yl)-pyrimidin-2-yl]-amine] |  | 227 to 229 °C | 6.31 µM |  |
| Cc1nc(-c2cccnc2)sc1-c1ccnc(Nc2ccc3c(c2)OCO3)n1 [Compound 177, Benzo[1,3]dioxol-5-yl-[4-(4-methyl-2-pyridin-3-yl-thiazol-5-yl)-pyrimidin-2-yl]-amine] |  | 187 to 188 °C | 2 µM |  |
| CCNc1nc(C)c(-c2ccnc(Nc3ccc4c(c3)OCO4)n2)s1 [Compound 178, Benzo[1,3]dioxol-5-yl-[4-(2-ethylamino-4-methyl-thiazol-5-yl)-pyrimidin-2-yl]-amine] | 0.2 µM | 194 to 195 °C | 0.158 µM |  |
| Cc1nc(N)sc1-c1ccnc(Nc2ccc3c(c2)OCO3)n1 [Compound 179, [4-(2-Amino-4-methyl-thiazol-5-yl)-pyrimidin-2-yl]-benzo[1,3]dioxol-5-yl-amine] | 0.1 µM | 211 to 213 °C | 0.0794 µM |  |
| Cc1nc(-c2cccnc2)sc1-c1ccnc(Nc2ccc(N3CCCC3)cc2)n1 [Compound 198, [4-(4-Methyl-2-pyridin-3-yl-thiazol-5-yl)-pyrimidin-2-yl]-(4-pyrrolidin-1-yl-phenyl)-amine] |  | 212 to 214 °C | 2 µM |  |
| Cc1nc(C)c(-c2ccnc(Nc3ccc(N4CCCC4)cc3)n2)s1 [Compound 199, [4-(2,4-Dimethyl-thiazol-5-yl)-pyrimidin-2-yl]-(4-pyrrolidin-1-yl-phenyl)-amine] |  | 192 to 193 °C | 0.631 µM |  |
| Cc1nc(N)sc1-c1ccnc(Nc2ccc(N3CCSCC3)cc2)n1 [Compound 201, [4-(2-Amino-4-methyl-thiazol-5-yl)-pyrimidin-2-yl]-(4-thiomorpholin-4-yl-phenyl)-amine] | 1.58 µM | 180 to 182 °C | 0.0631 µM | 1.58 µM |
| Cc1nc(C)c(-c2ccnc(Nc3ccc(N4CCSCC4)cc3)n2)s1 [Compound 202, [4-(2,4-Dimethyl-thiazol-5-yl)-pyrimidin-2-yl]-(4-thiomorpholin-4-yl-phenyl)-amine] | 5.01 µM | 173 to 174 °C | 0.158 µM |  |
| CCNc1nc(C)c(-c2ccnc(Nc3ccc(N4CCSCC4)cc3)n2)s1 [Compound 203, [4-(2-Ethylamino-4-methyl-thiazol-5-yl)-pyrimidin-2-yl]-(4-thiomorpholin-4-yl-phenyl)-amine] | 2 µM | 207 to 209 °C | 0.126 µM | 3.16 µM |
| Cc1nc(-c2cccnc2)sc1-c1ccnc(Nc2ccc(N3CCSCC3)cc2)n1 [Compound 204, [4-(4-Methyl-2-pyridin-3-yl-thiazol-5-yl)-pyrimidin-2-yl]-(4-thiomorpholin-4-yl-phenyl)-amine] |  | 191 to 193 °C | 0.501 µM |  |
| Cc1nc(C)c(-c2ccnc(Nc3ccc(N4CCCCC4)c(C)c3)n2)s1 [Compound 205, [4-(2,4-Dimethyl-thiazol-5-yl)-pyrimidin-2-yl]-(3-methyl-4-piperidin-1-yl-phenyl)-amine] |  | 159 to 160 °C | 0.398 µM |  |
| Cc1cc(Nc2nccc(-c3sc(N)nc3C)n2)ccc1N1CCCCC1 [Compound 206, [4-(2-Amino-4-methyl-thiazol-5-yl)-pyrimidin-2-yl]-(3-methyl-4-piperidin-1-yl-phenyl)-amine] | 1.26 µM | 221 to 223 °C | 0.158 µM |  |
| CCNc1nc(C)c(-c2ccnc(Nc3ccc(N4CCCCC4)c(C)c3)n2)s1 [Compound 207, [4-(2-Ethylamino-4-methyl-thiazol-5-yl)-pyrimidin-2-yl]-(3-methyl-4-piperidin-1-yl-phenyl)-amine] |  | 213 to 214 °C | 0.501 µM |  |
| Cc1cc(Nc2nccc(-c3sc(-c4cccnc4)nc3C)n2)ccc1N1CCCCC1 [Compound 208, (3-Methyl-4-piperidin-1-yl-phenyl)-[4-(4-methyl-2-pyridin-3-yl-thiazol-5-yl)-pyrimidin-2-yl]-amine] |  | 200 to 201 °C | 1 µM |  |
| Cc1cc(Nc2nccc(-c3sc(N)nc3C)n2)ccc1N1CCOCC1 [Compound 218, [4-(2-Amino-4-methyl-thiazol-5-yl)-pyrimidin-2-yl]-(3-methyl-4-morpholin-4-yl-phenyl)-amine] | 1.26 µM | 256 to 257 °C | 0.0631 µM | 1.58 µM |
